The text below walks through data of patent publication US5702934A, “Processes for producing an enzyme” (priority 1993, dated 1997).

Read-outs that look alike come from different tables or passages of the source.

Experiment [1] has as its target T1, trypsin-like Fusarium oxysporum protease (F. oxysporum DSM 2672), SEQ ID NO: 2 (Fusarium oxysporum, UniProt P35049).
T1 construct: made in house; host or cells: Aspergillus oryzae IFO 4177 transformed with pSX183
The experiment can be described thus: Tryptic activity (L-BAPNA) of the trypsin-like protease with or without 1,10-phenanthroline. It is filed as biochemical. As for the experimental part:
(§1) The tryptic activity is measured in microtiter plates; 100 μl samples are mixed with 100 μl of substrate (Stock: 87 mg/ml L-BAPNA (Sigma) in DMSO, diluted 50-fold in buffer) and the absorption at 405 nm is measured using a Thermomax microplate reader from Molecular Devices.
(§2) Metalloproteases contain a catalytic zinc metal center which participates in the hydrolysis of the peptide backbone. The active zinc center differentiates these proteases from calpains whose activities are dependent upon the presence of calcium. Confirmation of a protease as a metallo-protease is loss of proteolytic activity accomplished by removal of the zinc center with 1,10-phenanthroline (1 mM) followed by titration with Zn^2+ (0.1-100μM) to restore full activity.

The target in experiment [2] is T2, Fusarium oxysporum p45 proteolytic enzyme (p45 maturase, metalloprotease), SEQ ID NO:6 (Fusarium oxysporum, UniProt M1UZ70).
T2 construct: apparently native maturase from F. oxysporum; recombinant p45 also made in A. oryzae
The class given is biochemical. As for the experimental part:
as §1, §2

Experiment [3] deals with pro-trypsin-like Fusarium oxysporum protease (recombinant proenzyme form of the trypsin-like F. oxysporum protease) (Fusarium oxysporum DSM 2672).

Regarding `c1cnc2c(c1)ccc1cccnc12` [1,10-phenanthroline], the “inhibition of the trypsin-like protease (in words)” value in experiment [1] (1,10-phenanthroline 1 mM) is reported as “not inhibited”. Moreover, the “Tryptic Activity (Δ Abs/min × 10^-4)” value in experiment [1] (1,10-phenanthroline 1 mM, no Zn2+, without inhibitor 34.0) was 33.8 Δ Abs/min × 10^-4. Also, the “tryptic activity with inhibitor addition” value in experiment [1] (1,10-phenanthroline (1 mM), without inhibitor 34.0×10^-4) is reported as 33.8×10^-4 ΔAbs/min. Also, the “Maturase activity upon addition of inhibitor (in words)” value in experiment [2] (1 mM 1,10-phenanthroline) is on record as “halted”. In addition, in experiment [2] (1,10-phenanthroline 1 mM, no Zn2+, without inhibitor 54.0, proenzyme alone 1.26), the “Tryptic Activity (Δ Abs/min × 10^-4) released by p45 Maturase from pro-trypsin-like F. oxysporum protease” value is listed as 2.9 Δ Abs/min × 10^-4.
For `O=C(O)CN(CCN(CC(=O)O)CC(=O)O)CC(=O)O` [EDTA], the “Maturase activity upon addition of inhibitor (in words)” value in experiment [2] (EDTA 1 mM substituted for 1,10-phenanthroline) was “Analogous results”.
For “p45 proteolytic enzyme (maturase) from Fusarium oxysporum”, the Tryptic Activity (Δ Abs/min × 10^-4) released from the proenzyme, L-BAPNA assay in experiment [3] is 0.0054 Δ Abs/min.
